Measurements as given in patent publication US8563254B2, “Biomarkers of tumor pharmacodynamic response” (Novartis AG, priority 2009, dated 2013).

Experiments:
[1] = system: A375 tumor-bearing mice; assay: Serum IL-8 / mouse KC in A375 mouse xenograft model; format: in vivo; parameters: drop of serum IL-8 levels / time at which serum IL-8 recovered to pre-treatment level: dose or concentration left out as unconfirmed
Procedure: The in vivo study was carried out in strict accordance with Swiss law for animal protection and was approved by the Swiss Cantonal Veterinary Office of Basel-Stadt. GTL-16 (4×10^6) and A375 cells (5×10^6) were inoculated subcutaneously in the right flank in 200 μl Hanks' balanced salt solution (HBSS) or PBS, respectively. Invasive procedures were performed under Forene anesthesia. All experiments were performed in female Harlan HsdNpa: Athymic Nude-nu mice (Laboratory Animal Services, Novartis Pharma AG, Basel). The animals were kept under optimized hygienic conditions with 12 hr dark, 12 hr light conditions. The animals were fed food and water ad libitum. […] Mice in the control group were injected with the vehicle (D5W). Serum was isolated and tumors dissected over the time course 0-168 hr. Tumors were cut in two halves. One half was paraffin embedded and the other snap frozen, and stored at −80° C.
(§1) Human IL-8 levels in cell culture supernatants treated with NVP-AUY922 were initially assessed as part of a multiplexed bead-based cytokine panel (hu 27-plex panel I, Bio-rad Laboratories, Hercules, Calif., USA) with a BioPlex Suspension Array System (Bio-rad). Human IL-8 and mouse KC levels in serum derived from GTL-16 and A375 tumor-bearing mice treated with NVP-AUY922 were measured by single-plex cytokine bead-based assay (Milliplex, Millipore, Billerica, Mass., USA). The BioPlex system uses a liquid suspension array of beads. The beads align in a single file through a flow cell to the detector, where a red classification laser at a wavelength of 635 nm and a green reporter laser at a wavelength of 532 nm are used to identify each bead's spectral address and associated reporter signal, respectively.

[2] = system: A375 cells; assay: Western blot of total protein lysates, A375; format: cell-based, human; details: A375, 0.3 μM, 16 hr and 24 hr
Procedure: Total protein lysates were prepared from the GTL-16 and A375 cells with RIPA lysis buffer (Upstate, Millipore Corporation, Charlottesville, Va., USA). Cells were washed with PBS and 500 ul of ice-cold RIPA buffer, containing protease inhibitor cocktail tablet (Roche Diagnostic GmbH, Mannheim, Germany) and phosphatase inhibitors (Sigma-Aldrich, Inc., St. Louis, Mo., USA), was added to each plate on ice. After 15 min the cells were scrapped from the plate surface and spun at 16000 RPM for 10 min at 4° C. The supernatant was collected and frozen at −80° C. Nuclear protein fractions were prepared by the NE-PER nuclear and cytoplasmic extraction kit (Pierce Biotechnology, Rockford, Ill., USA). Proteins were quantified by bicinchoninic acid assay (Pierce Biotechnology, Rockford, Ill., USA) for Western blotting. Primary antibodies specific for NFκB p65, cREL, p-ERK1/2, p-c-jun, ERK1 and Jun were purchased from Santa Cruz Biotechnology (Santa Cruz Biotechnology, Inc., Santa Cruz, Calif., USA) with the exception of Hsp70 and TBP (nuclear loading control), which were obtained from StressGen (StressGen, Assay Designs, Inc., Aim Arbor, Mich., USA) and Abcam (Abcam Inc., Cambridge, Mass., USA), respectively. 4-12% Bis-Tris SDS-PAGE, denaturing, non-reducing gels were loaded with 30 μg of total protein, a SeeBlue2Plus pre-stained protein standard and MES SDS running buffer were utilized for the electrophoretic separation in a XCell SureLock™ Mini-Cell (Invitrogen Corporation, Inc., Carlsbad, Calif., USA). An iBlot™ gel transfer PVDF stack with iBlot™ gel transfer system (Invitrogen) was used. An Odyssey Infrared Imaging System was used to detect the immunocomplex (Li-COR Biotechnologies, Inc., Lincoln, Nebr., USA). Li-COR blocking buffer was used to limit cross-reactivity. Membranes were incubated at 4° C. overnight in the primary antibody diluted in blocking buffer, followed by 1 hr room temperature incubation with a secondary IgG antibody (Li-COR IR dye, Li-COR).

[3] = system: A375 cells; assay: IL-8 ELISA of A375 culture supernatants; format: cell-based, human
Procedure: (§2) A malignant melanoma cell line A375 (American Type Culture Collection, Manassas, Va., USA) and gastric cancer cell line, GTL-16 (Prof Silvia Giordano, Institute for Cancer Research and Treatment, Turin, Italy) were cultured in RPMI 1640 supplemented with 10% FBS and 1% penicillin-streptomycin at 37° C. in 5% CO2 (GIBCO reagents, Invitrogen Corporation, Carlsbad, Calif., USA). Cell numbers were determined by ViCell™ XR Cell Viability Analyzer 2.03 (Beckman Coulter, Inc., Fullerton, Calif., USA). Cells were seeded in poly-D-lysine coated plates (BIOCOAT Cell Environments, Becton Dickinson Biosciences, San Jose, Calif., USA).
Human IL-8 levels in cell culture supernatants from GTL-16 and A375 cells were measured by a sandwich enzyme-linked immunosorbent assay (R&D Systems, Inc., Minneapolis, Minn., USA). Cell culture supernatants were collected from DMSO and NVP-AUY922 treated cells 16, 24, 48 and 72 hr post-treatment and stored at −20° C.
To better characterize the relationship between Hsp90 inhibitor treatment and effects on IL-8 production, GTL-16 and A375 cells were washed and treated for 24 hr with fresh medium containing various concentrations of NVP-AUY922. For this length of treatment time, maximal inhibition of IL-8 accumulation appears to be reached at 0.3 μM as measured by enzyme-linked immunosorbent assay; this equates to 80% and 60% reductions in GTL-16 and A375 cultures, respectively (FIGS. 2A, B).

[4] = system: A375 cells; assay: Multiplexed bead-based 27-plex cytokine panel, A375 culture supernatants; format: cell-based, human; details: 48 hr
Procedure: as §2, §1
In a screen for candidate secreted markers of Hsp90 inhibition, cell culture supernatants were collected from GTL-16 gastric carcinoma and A375 melanoma cells that were washed and treated for 48 hr with 1 μM NVP-AUY922 in fresh culture medium. These samples were analyzed by a multiplexed cytokine bead-based assay that included a panel of 27 human cytokines, the results of which are shown in FIG. 1. […] In addition to this empirical investigation using the bead-based immunoassay panel, in silica data mining was undertaken to identify secreted proteins that were regulated by previously reported Hsp90 client proteins; this investigation pointed to a number of candidates, including IL-8, consistent with the empirical results.

## CCNC(=O)c1noc(-c2cc(C(C)C)c(O)cc2O)c1-c1ccc(CN2CCOCC2)cc1 [NVP-AUY922, 5-(2,4-Dihydroxy-5-isopropyl-phenyl)-4-(4-morhpolin-4-ylmethyl-phenyl)-isoxazole-3-carboxylic acid ethylamide]
[1]
  time at which serum IL-8 recovered to pre-treatment level: 168 h
[1]; 48 hr post-treatment
  drop of serum IL-8 levels: approximately 40%
[1]; serum
  murine IL-8 levels, measured indirectly as mu KC: unchanged
[2]
  Hsp70 induction: induction was observed
  levels of phospho-ERK1/2 and phospho-c-Jun: significantly diminished
  total ERK and c-Jun levels: unaffected
  total cellular levels of NFκB p65 and c-REL: essentially unchanged
[3]; A375, 0.3 μM
  time within which IL-8 production dramatically declines: ≤ 16 h
[3]; A375, 24 hr treatment
  concentration at which maximal inhibition of IL-8 accumulation is reached: 0.3 µM
[3]; Homo sapiens, A-375, A375, 0.3 μM, 24 hr, ELISA, read-out: reduction of IL-8 accumulation (maximal inhibition)
  inhibition at 0.3 µM: 60%
[4]; A375, 1 μM
  IL-2 levels: increased
  accumulation of IL-1ra, IL-8, MCP-1 (MCAF) and VEGF: decreased accumulation
  accumulation of other detectable cytokines: remained unchanged
[4]; A375 culture supernatant, 1 μM, multiplexed assay
  IL-8 accumulation decreased: > 70%
